Source: patent publication US20250019350A1, “SYNTHESIS OF THE PROSTATE SPECIFIC MEMBRANE ANTIGEN (PSMA) RADIOLABELED INHIBITOR [18F]DCFPYL” (Progenics Pharmaceuticals, Inc, priority 2023, published 2025)

Experiment: Radiolysis / stability of [18F]DCFPyL over time by HPLC with radiodetection (RCP, free 18F, radioactive impurities)
Type: physicochemical
Description: Those of ordinary skill in the art will be aware of techniques and systems for determining the radiochemical purity of a composition. In some cases, the radiochemical purity is determined using an HPLC associated with a radio-detector. Generally, the radiochemical purity is determined under ambient conditions (e.g., ambient temperature, ambient humidity, ambient light, etc.), such as in samples stored under such conditions.
Stability was assessed using reverse phase HPLC on a C18 column with a phosphate buffer/acetonitrile gradient mobile phase, and the elution profile was monitored using both UV and radiochemical detectors. Samples were analyzed either by direct injection onto the HPLC, dilution and injection or including the addition of tetraethylammonium fluoride (TEAF) into the sample before injection.
Known amounts of free ^18F either alone or spiked with TEAF were injected onto the analytic column and the eluent from the column collected over the course of a chromatogram and assaying the radioactivity using a Capintec. […] Adding TEAF into the analytic samples was incorporated into subsequent studies examining potential radiolysis of [^18F]DCFPyL to overcome some of the limitations of free ^18F quantification.
Analytical HPLC method was used. The method employs UV detection at 264 nm for chemical impurities, and an Eckert & Ziegler model B-FC-1000 gamma detector for radiochemical assays.

[1] = T = 10, 50 mg/mL ascorbic acid pH 5.8, 20% ethanol, 106.5 mCi/mL at EOS
[2] = T = 0.5 hr, 50 mg/mL ascorbic acid pH 5.8 in final product vial, 20% ethanol, 110 mCi/mL at EOS
[3] = T = 0.5 hr, 100 mg/mL ascorbic acid pH 2.0, 256 mCi/mL at EOS
[4] = T = 0.5 hr, 20% ethanol in saline, 52 mCi/mL at EOS
[5] = T = 0.5 hr, 20% ethanol in saline, 65 mCi/mL at EOS
[6] = T = 0.5 hr, 20% ethanol in saline, 85 mCi/mL at EOS
[7] = T = 0.5 hr, control without ascorbic acid, 36% ethanol in saline, 147 mCi/mL at EOS
[8] = T = 1.0 hr, 50 mg/mL ascorbic acid pH 5.8 in final product vial, 20% ethanol, 110 mCi/mL at EOS
[9] = T = 1.0 hr, 100 mg/mL ascorbic acid pH 2.0, 256 mCi/mL at EOS
[10] = T = 1 hr, 20% ethanol in saline, 52 mCi/mL at EOS
[11] = T = 1 hr, 20% ethanol in saline, 65 mCi/mL at EOS
[12] = T = 1 hr, 20% ethanol in saline, 85 mCi/mL at EOS
[13] = T = 1 hr, 100% ethanol, 325 mCi/mL at EOS
[14] = T = 1 hr, control without ascorbic acid, 36% ethanol in saline, 147 mCi/mL at EOS
[15] = T = 1.5 hr (Table 3 prints 1.6 hr), control without ascorbic acid, 36% ethanol in saline, 147 mCi/mL at EOS
[16] = T = 1.5 hr, 50 mg/mL ascorbic acid pH 5.8 in final product vial, 20% ethanol, 110 mCi/mL at EOS
[17] = T = 1.5 hr, 100 mg/mL ascorbic acid pH 2.0, 256 mCi/mL at EOS
[18] = T = 1.5 hr, 20% ethanol in saline, 52 mCi/mL at EOS
[19] = T = 1.5 hr, 20% ethanol in saline, 65 mCi/mL at EOS
[20] = T = 1.5 hr, 20% ethanol in saline, 85 mCi/mL at EOS
[21] = T = 2 hr, 0.5 mg/mL ascorbic acid pH 5.8, 20% ethanol, 105.8 mCi/mL at EOS
[22] = T = 2 hr, 1 mg/mL ascorbic acid pH 5.8, 20% ethanol, 107.0 mCi/mL at EOS
[23] = T = 2 hr, 5 mg/mL ascorbic acid pH 5.8, 20% ethanol, 99.0 mCi/mL at EOS
[24] = T = 2 hr, 20 mg/mL sodium citrate, 20% ethanol, 104.8 mCi/mL at EOS
[25] = T = 2 hr, 50 mg/mL ascorbic acid pH 5.8, 20% ethanol, 139.7 mCi/mL at EOS
[26] = T = 2.0 hr, 50 mg/mL ascorbic acid pH 5.8 in final product vial, 20% ethanol, 110 mCi/mL at EOS
[27] = T = 2.0 hr, 100 mg/mL ascorbic acid pH 2.0, 256 mCi/mL at EOS
[28] = T = 2 hr, 20% ethanol in saline, 52 mCi/mL at EOS
[29] = T = 2 hr, 20% ethanol in saline, 65 mCi/mL at EOS
[30] = T = 2 hr, 20% ethanol in saline, 85 mCi/mL at EOS
[31] = T = 2 hr, 100% ethanol, 325 mCi/mL at EOS
[32] = T = 2 hr, control without ascorbic acid, 36% ethanol in saline, 147 mCi/mL at EOS
[33] = T = 2.5 hr, 50 mg/mL ascorbic acid pH 5.8 in final product vial, 20% ethanol, 110 mCi/mL at EOS

Structure (SMILES): O=C(O)CC[C@H](NC(=O)N[C@@H](CCCCNC(=O)c1ccc([18F])nc1)C(=O)O)C(=O)O [Lot 18F-DCFPyL, 2-(3-{1-carboxy-5-[(6-[18F]fluoro-pyridine-3-carbonyl)-amino]-pentyl}ureido)-pentanedioic acid]
- 18F-DCFPyL (% RCP) [1]: 99.43%
- Free F-18 [1]: 0.57%
- 18F-DCFPyL (RCP) [2]: 99.69%
- RT 5.0 radioactive impurity [2]: 0.31%
- 18F-DCFPyL (RCP) [3]: 99.60%
- Free 18F [3]: 0.40%
- 18F-DCFPyL (RCP) [4]: 99.18%
- Free F-18 [4]: 0.36%
- RT 5.0 radioactive impurity [4]: 0.47%
- 18F-DCFPyL (RCP) [5]: 96.43%
- Free F-18 [5]: 3.17%
- RT 5.0 radioactive impurity [5]: 0.39%
- 18F-DCFPyL (RCP) [6]: 96.74%
- Free F-18 [6]: 2.92%
- RT 5.0 radioactive impurity [6]: 0.34%
- 18F-DCFPyL (RCP) [7]: 90.65%
- Free F-18 [7]: 7.73%
- RT 5.0 radioactive impurity [7]: 0.65%
- RT 5.9 radioactive impurity [7]: 0.97%
- 18F-DCFPyL (RCP) [8]: 96.73%
- RT 5.0 radioactive impurity [8]: 0.27%
- 18F-DCFPyL (RCP) [9]: 98.68%
- Free 18F [9]: 0.31%
- RT 5.0 radioactive impurity [9]: 0.35%
- RT 12.0 radioactive impurity [9]: 0.35%
- RT 12.2 radioactive impurity [9]: 0.31%
- 18F-DCFPyL (RCP) [10]: 98.93%
- Free F-18 [10]: 0.56%
- RT 5.0 radioactive impurity [10]: 0.51%
- 18F-DCFPyL (RCP) [11]: 96.15%
- Free F-18 [11]: 3.22%
- RT 5.0 radioactive impurity [11]: 0.36%
- RT 5.9 radioactive impurity [11]: 0.28%
- 18F-DCFPyL (RCP) [12]: 96.64%
- Free F-18 [12]: 2.98%
- RT 5.0 radioactive impurity [12]: 0.38%
- 18F-DCFPyL (RCP) [13]: 96.66%
- Free F-18 [13]: 3.34%
- 18F-DCFPyL (RCP) [14]: 90.71%
- Free F-18 [14]: 7.69%
- RT 5.0 radioactive impurity [14]: 0.48%
- RT 5.9 radioactive impurity [14]: 1.11%
- 18F-DCFPyL (RCP) [15]: 89.59%
- Free F-18 [15]: 8.78%
- RT 5.0 radioactive impurity [15]: 0.61%
- RT 5.9 radioactive impurity [15]: 1.03%
- 18F-DCFPyL (RCP) [16]: 99.61%
- RT 5.0 radioactive impurity [16]: 0.39%
- RT 5.9 radioactive impurity [16]: 0.31%
- 18F-DCFPyL (RCP) [17]: 98.58%
- Free 18F [17]: 0.31%
- RT 5.0 radioactive impurity [17]: 0.28%
- RT 12.0 radioactive impurity [17]: 0.46%
- RT 12.2 radioactive impurity [17]: 0.37%
- 18F-DCFPyL (RCP) [18]: 98.70%
- Free F-18 [18]: 0.80%
- RT 5.0 radioactive impurity [18]: 0.50%
- 18F-DCFPyL (RCP) [19]: 95.78%
- Free F-18 [19]: 3.55%
- RT 5.0 radioactive impurity [19]: 0.38%
- RT 5.9 radioactive impurity [19]: 0.29%
- 18F-DCFPyL (RCP) [20]: 95.06%
- Free F-18 [20]: 4.22%
- RT 5.0 radioactive impurity [20]: 0.41%
- RT 5.9 radioactive impurity [20]: 0.31%
- 18F-DCFPyL (% RCP) [21]: 98.99%
- Free F-18 [21]: 1.01%
- 18F-DCFPyL (% RCP) [22]: 98.88%
- Free F-18 [22]: 1.12%
- Free F-18 (T = 2 hr, 1 mg/mL sodium ascorbate, 20% ethanol, 111.5 mCi/mL at EOS): 1.89%
- 18F-DCFPyL (% RCP) [23]: 99.45%
- Free F-18 [23]: 0.55%
- Free F-18 (T = 2 hr, 5 mg/mL sodium ascorbate, 20% ethanol, 114.6 mCi/mL at EOS): 0.89%
- Free F-18 [24]: 18.24%
- RT 3.4 radioactive impurity [24]: 0.30%
- RT 3.7 radioactive impurity [24]: 0.31%
- 18F-DCFPyL (% RCP) [25]: 100.00%
- Free F-18 [25]: 0.00%
- RT 4.8 radioactive impurity (T = 2 hr, 50 mg/mL ascorbic acid pH 5.8, 20% ethanol, 139.7 mCi/mL at EOS, MPA = 0.25% of main peak): <MPA
- 18F-DCFPyL (RCP) [26]: 99.67%
- RT 5.0 radioactive impurity [26]: 0.33%
- RT 5.9 radioactive impurity [26]: 0.24%
- 18F-DCFPyL (RCP) [27]: 98.35%
- Free 18F [27]: 0.31%
- RT 5.0 radioactive impurity [27]: 0.35%
- RT 12.0 radioactive impurity [27]: 0.52%
- RT 12.2 radioactive impurity [27]: 0.47%
- 18F-DCFPyL (RCP) [28]: 98.62%
- Free F-18 [28]: 0.91%
- RT 5.0 radioactive impurity [28]: 0.47%
- 18F-DCFPyL (RCP) [29]: 95.91%
- Free F-18 [29]: 3.78%
- RT 5.0 radioactive impurity [29]: 0.31%
- 18F-DCFPyL (RCP) [30]: 95.37%
- Free F-18 [30]: 4.00%
- RT 5.0 radioactive impurity [30]: 0.39%
- RT 5.9 radioactive impurity [30]: 0.24%
- 18F-DCFPyL (RCP) [31]: 96.38%
- Free F-18 [31]: 3.62%
- 18F-DCFPyL (RCP) [32]: 89.50%
- Free F-18 [32]: 8.67%
- RT 5.0 radioactive impurity [32]: 0.77%
- RT 5.9 radioactive impurity [32]: 1.05%
- 18F-DCFPyL (RCP) [33]: 99.63%
- RT 5.0 radioactive impurity [33]: 0.37%
- RT 5.9 radioactive impurity [33]: 0.35%
